In ChEMBL document CHEMBL1149398, “Pyrrolizidine esters and amides as 5-HT4 receptor agonists and antagonists” (J Med Chem, 2006):

Key:
[1] = Binding affinity to 5HT1 receptor
[2] = molecular target: T1, Adrenergic receptor alpha-2 (Homo sapiens, UniProt P08913+P18825+P18089); assay: Binding affinity to adrenergic alpha-2 receptor; format: protein assay
T1 sequence (P08913 whole entry): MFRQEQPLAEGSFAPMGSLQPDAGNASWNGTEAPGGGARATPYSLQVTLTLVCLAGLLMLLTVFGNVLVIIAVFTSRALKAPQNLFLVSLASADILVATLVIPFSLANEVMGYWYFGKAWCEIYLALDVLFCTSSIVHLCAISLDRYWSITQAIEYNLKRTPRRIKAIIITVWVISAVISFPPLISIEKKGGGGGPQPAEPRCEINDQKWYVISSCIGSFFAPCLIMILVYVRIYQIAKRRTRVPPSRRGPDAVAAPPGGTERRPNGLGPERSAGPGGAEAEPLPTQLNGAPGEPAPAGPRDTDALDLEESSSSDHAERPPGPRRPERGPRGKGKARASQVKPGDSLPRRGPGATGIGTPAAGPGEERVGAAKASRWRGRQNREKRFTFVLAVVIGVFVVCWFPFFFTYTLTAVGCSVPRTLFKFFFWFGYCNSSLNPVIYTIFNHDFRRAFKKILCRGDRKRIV
T1 sequence (P18825 whole entry): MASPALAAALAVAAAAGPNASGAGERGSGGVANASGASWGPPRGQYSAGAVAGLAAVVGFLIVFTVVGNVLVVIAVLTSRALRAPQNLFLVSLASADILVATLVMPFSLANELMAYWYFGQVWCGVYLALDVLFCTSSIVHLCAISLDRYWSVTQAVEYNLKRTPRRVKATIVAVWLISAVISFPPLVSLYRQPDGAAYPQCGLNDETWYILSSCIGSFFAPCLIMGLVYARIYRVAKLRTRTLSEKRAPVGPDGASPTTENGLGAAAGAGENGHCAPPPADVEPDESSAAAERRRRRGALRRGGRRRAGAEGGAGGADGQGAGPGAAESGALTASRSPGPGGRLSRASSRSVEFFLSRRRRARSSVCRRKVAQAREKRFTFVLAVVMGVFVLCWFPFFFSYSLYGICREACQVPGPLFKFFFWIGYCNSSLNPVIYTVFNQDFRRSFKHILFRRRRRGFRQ
T1 sequence (P18089 whole entry): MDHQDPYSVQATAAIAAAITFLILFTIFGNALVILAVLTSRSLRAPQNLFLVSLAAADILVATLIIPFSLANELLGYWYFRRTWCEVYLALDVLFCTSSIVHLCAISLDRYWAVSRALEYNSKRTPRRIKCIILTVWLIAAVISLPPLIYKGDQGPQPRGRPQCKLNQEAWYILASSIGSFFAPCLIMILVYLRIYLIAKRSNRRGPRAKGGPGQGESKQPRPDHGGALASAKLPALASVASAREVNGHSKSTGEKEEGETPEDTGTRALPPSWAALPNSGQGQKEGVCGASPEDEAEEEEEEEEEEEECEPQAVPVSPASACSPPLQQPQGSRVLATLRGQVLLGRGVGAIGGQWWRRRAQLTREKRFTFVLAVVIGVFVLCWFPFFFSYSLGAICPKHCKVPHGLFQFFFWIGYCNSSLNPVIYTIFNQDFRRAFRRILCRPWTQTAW

D(2) dopamine receptor = D(2) dopamine receptor (Homo sapiens, UniProt P14416); assay: Binding affinity to dopamine receptor D2
[3] = molecular target: 5-hydroxytryptamine receptor 4 (Cavia porcellus, UniProt O70528); assay: Displacement of [3H]GR-113808 from 5HT4 receptor in guinea pig striatum
[4] = molecular target: Serotonin 2 (5-HT2) receptor (Homo sapiens, UniProt P41595+P28223+P28335); assay: Binding affinity to 5HT2 receptor; format: protein assay
[5] = molecular target: Beta-2 adrenergic receptor (Homo sapiens, UniProt P07550); assay: Binding affinity to adrenergic beta-2 receptor
D(1A) dopamine receptor = D(1A) dopamine receptor (Homo sapiens, UniProt P21728); assay: Binding affinity to dopamine receptor D1
D(1A) dopamine receptor, sequence (P21728 whole entry): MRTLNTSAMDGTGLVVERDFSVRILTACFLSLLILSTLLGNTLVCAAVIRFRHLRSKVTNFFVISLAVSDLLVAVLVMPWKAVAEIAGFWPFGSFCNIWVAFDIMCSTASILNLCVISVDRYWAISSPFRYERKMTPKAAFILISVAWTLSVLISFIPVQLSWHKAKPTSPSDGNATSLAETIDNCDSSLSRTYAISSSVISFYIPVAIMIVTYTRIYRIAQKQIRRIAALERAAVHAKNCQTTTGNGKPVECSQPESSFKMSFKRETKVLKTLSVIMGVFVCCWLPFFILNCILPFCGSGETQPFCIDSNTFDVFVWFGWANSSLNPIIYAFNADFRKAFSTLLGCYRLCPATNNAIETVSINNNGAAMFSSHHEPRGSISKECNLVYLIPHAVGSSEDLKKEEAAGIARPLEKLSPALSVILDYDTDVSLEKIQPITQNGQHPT

5-hydroxytryptamine receptor 4, sequence (O70528 whole entry): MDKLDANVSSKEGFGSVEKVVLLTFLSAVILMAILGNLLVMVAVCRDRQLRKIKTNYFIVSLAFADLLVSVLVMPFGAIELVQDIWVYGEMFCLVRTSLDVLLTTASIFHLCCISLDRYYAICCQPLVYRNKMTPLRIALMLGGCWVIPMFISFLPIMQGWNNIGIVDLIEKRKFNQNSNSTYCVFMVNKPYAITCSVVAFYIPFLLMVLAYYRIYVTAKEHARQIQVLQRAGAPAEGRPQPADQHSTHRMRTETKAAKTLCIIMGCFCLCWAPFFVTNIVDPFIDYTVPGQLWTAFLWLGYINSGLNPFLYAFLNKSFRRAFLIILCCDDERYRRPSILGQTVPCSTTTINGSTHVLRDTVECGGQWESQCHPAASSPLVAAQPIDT
D(2) dopamine receptor, sequence (P14416 whole entry): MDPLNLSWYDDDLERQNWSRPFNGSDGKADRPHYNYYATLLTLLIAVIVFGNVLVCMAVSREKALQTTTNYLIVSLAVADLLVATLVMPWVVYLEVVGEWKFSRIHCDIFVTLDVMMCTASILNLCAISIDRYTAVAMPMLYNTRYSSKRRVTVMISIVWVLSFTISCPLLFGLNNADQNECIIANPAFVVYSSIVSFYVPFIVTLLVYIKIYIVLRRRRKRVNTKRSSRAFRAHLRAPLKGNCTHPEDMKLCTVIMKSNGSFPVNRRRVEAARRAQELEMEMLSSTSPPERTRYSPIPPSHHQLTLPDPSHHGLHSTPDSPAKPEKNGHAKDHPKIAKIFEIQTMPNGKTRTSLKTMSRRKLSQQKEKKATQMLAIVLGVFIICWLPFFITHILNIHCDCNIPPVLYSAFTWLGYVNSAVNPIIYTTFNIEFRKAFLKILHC
Beta-2 adrenergic receptor, sequence (P07550 whole entry): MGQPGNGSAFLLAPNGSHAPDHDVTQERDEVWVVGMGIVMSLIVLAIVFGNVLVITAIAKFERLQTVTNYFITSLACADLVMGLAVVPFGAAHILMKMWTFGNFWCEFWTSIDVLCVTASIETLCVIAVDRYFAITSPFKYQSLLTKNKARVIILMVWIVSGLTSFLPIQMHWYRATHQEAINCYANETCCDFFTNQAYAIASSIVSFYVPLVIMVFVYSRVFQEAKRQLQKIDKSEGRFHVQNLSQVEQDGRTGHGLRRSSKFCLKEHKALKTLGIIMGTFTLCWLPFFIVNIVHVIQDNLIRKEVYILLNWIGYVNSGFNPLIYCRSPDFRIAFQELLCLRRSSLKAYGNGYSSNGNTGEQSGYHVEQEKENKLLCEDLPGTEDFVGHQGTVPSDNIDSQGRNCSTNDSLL

Row | IC50 [1] | IC50 [2] | IC50 (D(2) dopamine receptor) | Ki [3] | IC50 [4] | IC50 [5] | IC50 (D(1A) dopamine receptor) | Compound
1 | > 10 µM | > 10 µM | > 10 µM | 0.0004 µM | > 10 µM | > 10 µM | > 10 µM | Cn1nc(C(=O)OC[C@@H]2CCN3CCC[C@@H]23)c2ccccc21 (single isomer, unassigned)
2 | > 10 µM | > 10 µM | > 10 µM | 0.0008 µM | > 10 µM | > 10 µM | > 10 µM | O=C(OC[C@@H]1CCN2CCC[C@@H]12)c1[nH]nc2ccccc12 (single isomer, unassigned)
3 | > 10 µM | > 10 µM | > 10 µM | 0.000183 µM | > 10 µM | > 10 µM | > 10 µM | O=C(OC[C@@H]1CCN2CCC[C@@H]12)c1c[nH]c2ccccc12
4 | > 10 µM | > 10 µM | > 10 µM | 0.029 µM | > 10 µM | > 10 µM | > 10 µM | COc1cc(N)c(Cl)cc1C(=O)N[C@@H]1C2CC3CN(C2)CC31 (some centres not stated)

Row | Compound | IC50 [1] | IC50 [2] | IC50 (D(2) dopamine receptor) | Ki [3] | IC50 [4] | IC50 [5] | IC50 (D(1A) dopamine receptor)
5 | COc1cc(N)c(Cl)cc1C(=O)NC[C@@H]1CCN2CCC[C@@H]12 | > 10 µM | > 10 µM | > 10 µM | 0.0052 µM | > 10 µM | > 10 µM | > 10 µM
6 | O=C(NC[C@@H]1CCN2CCC[C@@H]12)c1cc(Cl)cn2ccnc12 | > 10 µM | > 10 µM | > 10 µM | 0.0014 µM | > 10 µM | > 10 µM | > 10 µM
